Test results published in PubChem BioAssay (NCI).
Where “and” joins values, the source holds several entries; their conditions need not be identical. Equal values may be shown once.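 Method: 48-hour compound exposure of cells in 96-well plates, five concentrations, linear interpolation of endpoints. GI50: concentration for 50% inhibition of growth. TGI: total growth inhibition.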

What was measured:
Assay in all cases: NCI tumour cell line growth inhibition, 48 h
SNB-75 CNS = test system: SNB-75 CNS
SK-MEL-2 melanoma = test system: SK-MEL-2 melanoma
HT29 colon = test system: HT29 colon
786-0 renal = test system: 786-0 renal
CCRF-CEM leukemia = test system: CCRF-CEM leukemia
LOX IMVI melanoma = test system: LOX IMVI melanoma
SW-620 colon = test system: SW-620 colon
SF-295 CNS = test system: SF-295 CNS
CAKI-1 renal = test system: CAKI-1 renal
SR leukemia = test system: SR leukemia

SMILES | GI50 (SNB-75 CNS) | TGI (SNB-75 CNS) | GI50 (SK-MEL-2 melanoma) | TGI (SK-MEL-2 melanoma) | GI50 (HT29 colon) | TGI (HT29 colon) | GI50 (786-0 renal) | TGI (786-0 renal) | GI50 (CCRF-CEM leukemia) | TGI (CCRF-CEM leukemia) | GI50 (LOX IMVI melanoma) | TGI (LOX IMVI melanoma) | GI50 (SW-620 colon) | TGI (SW-620 colon) | GI50 (SF-295 CNS) | TGI (SF-295 CNS) | GI50 (CAKI-1 renal) | TGI (CAKI-1 renal) | GI50 (SR leukemia) | TGI (SR leukemia)
COc1ccc(C2NC(=S)NC3=C2CCOc2c3ccc3ccccc23)cc1 (configuration not stated) | 60.7 µM | > 100 µM | > 100 µM | > 100 µM | 36.6 µM | > 100 µM | > 100 µM | > 100 µM | > 100 µM | > 100 µM | > 100 µM | > 100 µM | > 100 µM | > 100 µM | 19.1 µM | > 100 µM | > 100 µM | > 100 µM | 7.27 µM | > 100 µM
N#CCc1cccc(CC#N)c1Br |  | > 100 µM |  | > 100 µM |  | > 100 µM |  | > 100 µM |  | > 100 µM |  | > 100 µM |  | > 100 µM |  | > 100 µM |  | > 100 µM |  | > 100 µM
Cn1c(=O)c2c(nc(N/N=C/c3ccccc3C(=O)O)n2C)n(C)c1=O |  | > 100 µM |  | > 100 µM |  | > 100 µM |  | > 100 µM |  | > 100 µM |  | > 100 µM |  | > 100 µM |  | > 100 µM |  | > 100 µM |  | > 100 µM
COc1ccc(C2=Nn3c(nnc3-n3nc(C)cc3C)SC2)cc1 | 0.0214 µM |  | 0.0599 µM | > 100 µM | 0.0401 µM |  | 0.146 µM | > 100 µM | 0.038 µM | > 100 µM | 0.0694 µM | > 100 µM | 0.0423 µM | > 100 µM |  |  | 0.0443 µM | > 43.4 µM | 0.0242 µM | > 100 µM
O=C(O)c1ccccc1NCn1c(=S)sc2ccccc21 |  | > 100 µM |  | > 100 µM |  | > 100 µM |  | > 100 µM |  | 52.2 µM |  | 43.4 µM |  | > 100 µM |  | > 100 µM |  | > 100 µM |  | 81.6 µM
NC(=O)/C(=C/n1cnc(-c2cc(C(F)(F)F)cc(C(F)(F)F)c2)n1)c1cncnc1 | 0.454 µM | 5.48 µM | 0.353 µM | 5.75 µM | 0.422 µM | 16.3 µM | 0.412 µM | 11.4 µM | 0.231 µM | 14.4 µM | 0.303 µM | 4.36 µM | 0.175 µM | 7.03 µM | 0.667 µM | 17.1 µM | 0.275 µM | 14.1 µM | 0.0563 µM | > 34.4 µM
O=C1Nc2ccc3c(c2/C1=C\c1cc2c(cc1Br)OCO2)OCO3 | 0.189 µM | 1.41 µM | 3.4 µM | > 100 µM |  |  | 1.24 µM | 3.43 µM | 0.244 µM | 3.05 µM | 0.652 µM | 4.57 µM | 0.357 µM | 3.47 µM | 0.527 µM | 2.5 µM | 0.331 µM | 2.8 µM | 0.239 µM | > 30.8 µM
CCOC(=O)c1c(NC(=O)c2ccc(Cl)cc2)sc2c(CN(C)C)c(O)ccc12 | 3.25 µM | 19 µM | 6.51 µM | 41.1 µM | 2.48 µM | 7.13 µM | 5.54 µM | 20.7 µM | 13.3 µM | > 100 µM | 4.73 µM | 18.5 µM | 2.4 µM | 7.33 µM | 3.79 µM | 16.4 µM | 5.57 µM | 32.5 µM | 2.19 µM | 4.82 µM
C[C@@H]1CCc2ncc(F)cc2[C@H]2CCCN2c2ccn3ncc(c3n2)C(=O)N1 | 19.6 µM | 97 µM | > 100 µM | > 100 µM | 68.3 µM | > 100 µM | 63 µM | > 100 µM | > 100 µM | > 100 µM | 33.1 µM | > 100 µM | > 100 µM | > 100 µM | 60.6 µM | > 100 µM | 23 µM | > 100 µM | 4.38 µM | > 100 µM
CC(O)[C@H](NC(=O)N[C@@H](CC(N)=O)c1nc(N2CCNCC2)no1)C(=O)O (some centres not stated) | > 100 µM | > 100 µM | > 100 µM | > 100 µM | > 100 µM | > 100 µM | > 100 µM | > 100 µM | > 100 µM | > 100 µM | > 100 µM | > 100 µM | > 100 µM | > 100 µM | > 100 µM | > 100 µM | > 100 µM | > 100 µM | > 100 µM | > 100 µM
O=C(O)CCCCC1CCSS1 (configuration not stated) |  | > 100 µM |  | > 100 µM |  | > 100 µM |  | > 100 µM |  | > 100 µM |  | > 100 µM |  | > 100 µM |  | > 100 µM |  | > 100 µM |  | > 100 µM
COCC(C(=O)OC1C/C=C/C=C/C(=O)OC(C(C)C(O)C(C)CCC(OC(=O)C(C)N(C)C)C(C)C(OC(C)=O)C(C)/C=C/N(C)C=O)C/C=C/C(OC)CC(C)C/C=C(\C)C(OC)CCC(C)C(O)C1C)N(C)C (configuration not stated) | < 0.0001 µM | 0.0231 µM | < 0.0001 µM | 0.00774 µM |  |  | < 0.0001 µM | 0.000845 µM | < 0.0001 µM | 0.0139 µM | < 0.0001 µM | 0.00377 µM | < 0.0001 µM | > 1 µM | < 0.0001 µM | < 0.0001 µM | < 0.0001 µM | 0.007 µM | < 0.0001 µM | 0.00341 µM
NC1=NCN(C2OC(CO)C(O)C2O)C(=O)N1 (configuration not stated) |  | 392 µM |  | 7.06 µM |  | 2000 µM |  | 2050 µM |  | 541 µM |  | 135 µM |  | 1340 µM |  | 1460 µM |  | 339 µM |  | 278 µM
CC(=O)OCC1OC(n2c3c(cc(C#N)c2=S)CCCC3)C(OC(C)=O)C(OC(C)=O)C1OC(C)=O (configuration not stated) | > 100 µM and 14.6 µM | > 100 µM and 50.4 µM | > 100 µM and 27 µM | > 100 µM | 26.7 µM and > 100 µM | 83.9 µM and > 100 µM | > 100 µM and 26.9 µM | > 100 µM | 43.2 µM and > 100 µM | > 100 µM | 20.7 µM and > 100 µM | 57.3 µM and > 100 µM | 44.6 µM and > 100 µM | > 100 µM | > 100 µM and 19.7 µM | > 100 µM and 48.4 µM | > 100 µM and 42.1 µM | > 100 µM | 32.4 µM and > 100 µM | > 100 µM
CCOc1ccc2cc(-c3nn(CC4CCNCC4)c4ncnc(N)c34)ccc2c1 | 5.13 µM | 20.8 µM | 15.8 µM | 29.8 µM | 10.9 µM | 32 µM | 14.6 µM | 28.4 µM | 13.9 µM | 34.2 µM | 26.8 µM | > 100 µM | 15.2 µM | 31.4 µM | 14.8 µM | 29.5 µM | 19.2 µM | 60 µM | 4.23 µM | 19.6 µM
